What all share (format): cell-based, Staphylococcus aureus (Oxford)
For test [1], the system named is log phase Staphylococcus aureus. The test is described as follows: Chequerboard analysis of HT00800059 with HT230 or HT281 against log phase Staphylococcus aureus. The note with it: for optical density reading at 405 nm: HT00800059 μg/ml: 1024,512,256,128,64,32,16,0, 24 hours; for MIC: Staphylococcus aureus, summary list, read-out: alone MIC. As for the experimental part: (§1) Staphylococcus aureus (Oxford); Gram positive; Reference strain.
(§2) Log phase growth of methicilin sensitive Staphylococcus aureus (MSSA) was carried out as follows: • Bacteria were grown in 10 ml of nutrient broth (No. 2, (Oxoid)) overnight at 37° C. with continuous shaking at 120 rpm. The overnight cultures were diluted 1000× with iso-sensitest broth. The cultures were incubated at 37° C. with shaking for 1-2 hours to reach log CFU 6. Viability of the bacteria was estimated by colony forming unit (CFU) counts. From serial 10-fold dilutions of the experimental cultures, 100 μl samples were added to triplicate plates of nutrient agar plates (Oxoid) or blood agar plates (Oxoid). CFUs were counted after incubation of the plates at 37° C. for 24 hours.
(§3) Bacterial cultures: 10 μl of overnight cultures was added to 10 ml of fresh iso-sensitest broth to make the inoculation to 10^6 CFU/ml. 290 μl of the cell suspension was added to each well of the 96 well plate, which was incubated at 37° C. for 24 hours. 300 μl of iso-sensitest broth without bacterial cells were added to wells of the plate as a no bacterial control.
(§4) MIC determination: The optical density of the bacterial cells was read at 405 nm using a plate reader (Bio TEK). The MIC concentration was determined as the lowest concentration of drug which inhibits the bacterial growth.
HT230 was dissolved in DMSO to the stock concentration of 10 mg/ml.
HT281 was dissolved in DMSO to the stock concentration of 10 mg/ml.
(§5) HT00800059 was dissolved in H2O to the stock solution 30.07 mg/ml.
HT230 or HT281 (10 mg/ml) was firstly diluted to 0.96 mg/ml, then a serial of 2 fold dilution was carried out.
This was followed by the addition of 280 μl of log phase culture at 10^6 CFU/ml to make the final concentrations of each drug as shown.
In the above table, values in bold text are for HT00800059. Values in plain text are for HT230 or HT281. The numbers shown in each well are μg/ml.
Incubation of the compounds with the bacterial suspension was carried out for 24 hours. The kill effects of the drug combination were measured by optical density reading at 405 nm with a plate reader (Bio TEK).
(§6) The fractional inhibitory concentration (FIC) index was carried out as follows: (MIC of drug A, tested in combination)/(MIC of drug A, tested alone)+(MIC of drug B, tested in combination)/(MIC of drug B, tested alone). The interaction was defined as synergistic if the FIC index was <1, additive if the FIC index was =1 and antagonistic if the FIC index was >1.

For test [2] the test system is unchanged. Kind of test: Chequerboard analysis of HT00800059 and HT61 against log phase Staphylococcus aureus. As for the experimental part: as §1, §2, §3, §4
(§7) HT61 was dissolved in DMSO to the stock concentration of 10 mg/ml.
as §5
The drugs were first diluted as follows: • 28.8 μl of HT61 at 10 mg/ml was added into 271.2 μl of H2O followed by diluting 2 fold for 6 times.
Both drugs were mixed as following pattern: 10 μl of HT00800059 from each dilution was added into the wells of a 96 well plate from top to bottom and 10 μl of HT61 from each dilution was added to the same 96 well plate from left to right. After addition of 280 μl log phase cell suspension, the final concentrations of drugs for each well in the 96 well plate are shown in the table below.
Incubation of the compounds with the bacterial suspension was carried out for 24 hours. The kill effect of the drug combination and signal drug MIC was measured by optical density reading at 405 nm with a plate reader (Bio TEK). The MIC concentration was determined as the lowest concentration of drug which inhibits the bacterial growth.
as §6

The subject of test [3] is stationary phase Staphylococcus aureus. Kind of test: In vitro efficacy test against stationary phase Staphylococcus aureus (CFU counts). The conditions noted are these: CFU counts over 8 hours. As for the experimental part:
as §1
Stationary phase growth of methicilin sensitive Staphylococcus aureus (MSSA) was carried out as follows:
Subculture of the bacterial strains on agar plates: Overnight S. aureus bacterial cultures were stored at −70° C. with 20% glycerol (cryoprotectant). A loopful of the frozen cells was streaked on a blood agar plate which was incubated at 37° C. overnight (or longer) as culture plate A. A single colony of each strain from the culture plate A was streaked on the blood agar plate which was incubated at 37° C. overnight (or longer) as culture plate B. The culture plate B was stored at 4° C. for a week and served as the initial inoculation plate.
Bacterial growth in broth culture: A single colony from culture plate B was inoculated in 10 ml of nutrient broth (No. 2, (Oxoid)), which was incubated overnight at 37° C. with continuous shaking at 120 rpm. 200 μl of the overnight culture was added into a 500 ml bottle containing 100 ml of nutrient broth. The 100 ml culture was incubated at 37° C. with continuous shaking for 6 to 7 days. Viability of the cultures is estimated by colony forming unit (CFU) counts at 2 hour intervals for the first 24 hours and 12 to 24 hours afterwards.
Colony Forming Unit (CFU) counts were performed as follows: From serial 10-fold dilutions of the cultures, 100 μl samples were added to one third of blood agar plates (Oxoid) in triplicate. CFUs were counted using an aCoLyte colony counter (Synbiosis) after incubation of the plates at 37° C. for 24 hours or longer.
7 day old stationary phase cultures were used. The stationary phase cultures were diluted to obtain CFU counts in the cell suspension of 10^6 to 10^7 CFU/ml. The cell suspension was used to test drug sensitivity.
as §7
HT00800059 was dissolved in H2O to the stock solution 10 mg/ml
The drugs were first diluted as follows: • 7.2 μl of HT61 at 10 mg/ml was added into 292.8 μl of H2O followed by diluting 2 fold, 3 times. • 57.6 μl of HT00800059 at 10 mg/ml was added into 242.4 μl of H2O followed by diluting 2 fold, 2 times. • 10 μl of HT00800059 from each dilution was added into the wells of a 96 well plate followed by the addition of 290 μl of bacterial cell suspension to make the final concentrations of HT00800059 at 64, 32 and 0 μg/ml. • […]
In combination of two drugs: 10 μl of HT61 from each dilution was added into the wells of a 96 well plate followed by the addition of 10 μl of HT00800059 from each dilution. […]

Experimental findings from patent publication US9789101B2, “Methods and compositions for treating microbial infection using pyrroloquinone” (HELPERBY THERAPEUTICS LIMITED, priority 2010, dated 2017) are described below.

Structures are written as SMILES.

With `Cc1cc(N2CCC(Cc3ccccc3)C2)c2cc(Oc3ccccc3)ccc2n1` (centres unmarked) [HT230, 4-(3-benzylpyrrolidin-1-yl)-2-methyl-6-phenoxyquinoline], the “optical density reading at 405 nm” value in test [1] (HT230 0.03125 μg/ml) was found to be 1.237; in test [1] (HT230 0.0625 μg/ml), 1.312; in test [1] (HT230 0.125 μg/ml), 1.317; in test [1] (HT230 0.25 μg/ml), 1.401; in test [1] (HT230 0.5 μg/ml), 1.135; in test [1] (HT230 1 μg/ml), 1.160. Further, the “optical density reading at 405 nm” value is 1.190 in test [1] (HT230 2 μg/ml); 0.365 in test [1] (HT230 4 μg/ml); 0.363 in test [1] (HT230 8 μg/ml); 0.357 in test [1] (HT230 16 μg/ml); 0.406 in test [1] (HT230 32 μg/ml). In addition, the MIC after combination in test [1] (HT230/HT00800059 chequerboard) came out at 1 µg/mL. Moreover, the MIC before combination in test [1] (HT230/HT00800059 chequerboard) was determined as 4 µg/mL. In addition, the MIC in test [1] worked out at 4 µg/mL. Also, the “HT230 MIC in combination” value is 4 µg/mL in test [1] (with HT00800059 at 128 μg/ml) and 1 µg/mL in test [1] (with HT00800059 at 256 μg/ml).

Regarding `Cc1nc2ccc(Oc3ccccc3)cc2c2c1CCN2CCc1ccccc1` [HT61, 4-methyl-1-(2-phenylethyl)-8-phenoxy-2,3-dihydro-1H-pyrrolo[3,2-c]-quinoline], the MIC in test [2] (Staphylococcus aureus, drug alone, Plate 1, read-out: MIC) worked out at 8 µg/mL; in test [2] (Staphylococcus aureus, read-out: alone MIC), 16 µg/mL; in test [2] (Staphylococcus aureus, with HT00800059 128 μg/ml, Plate 1, read-out: MIC of HT61 + HT00800059), 4 µg/mL; in test [2] (drug alone, Plate 2), 8 µg/mL. For the same compound, the “MIC of HT61 + HT00800059” value in test [2] (with HT00800059 128 μg/ml, Plate 2) is 4 µg/mL. Besides, the “HT61 MIC in combination” value in test [2] (with HT00800059 at 128 μg/ml) stood at 8 µg/mL. In addition, the “activity against stationary phase S. aureus” value in test [3] (8 μg/ml) is recorded as “low activity”; in test [3] (4 and 2 μg/ml), “no observed activity”.

For `Cc1cc(N2CCC(Cc3ccccc3)C2)c2cc(NC(=O)c3ccccc3)ccc2n1` (centres unmarked) [HT281, N-[4-(3-benzylpyrrolidin-1-yl)-2-methylquinolin-6-yl]benzamide], the “optical density reading at 405 nm” value in test [1] (HT281 0.125 μg/ml) is on record as 1.334; in test [1] (HT281 0.25 μg/ml), 1.281; in test [1] (HT281 0.5 μg/ml), 1.378; in test [1] (HT281 0.625 μg/ml) it was 1.256; in test [1] (HT281 1 μg/ml) it was 1.263; in test [1] (HT281 2 μg/ml) it was 1.157. For the same compound, the “optical density reading at 405 nm” value came to 1.080 in test [1] (HT281 4 μg/ml); 0.361 in test [1] (HT281 8 μg/ml); 0.364 in test [1] (HT281 16 μg/ml); 0.396 in test [1] (HT281 32 μg/ml); 0.558 in test [1] (HT281 64 μg/ml). Besides, in test [1] (HT281/HT00800059 chequerboard), the MIC after combination is 4 µg/mL. Besides, the MIC before combination in test [1] (HT281/HT00800059 chequerboard) was 8 µg/mL. In addition, the MIC in test [1] amounted to 8 µg/mL.

The MIC is the lowest concentration found to suppress growth.
